# Experimental data published in patent US5760013A, “Thymidylate analogs and the use thereof” (National Science Council, priority 1996, dated 1998).
# Like-named read-outs stand apart in the source and are kept apart here.
# Tests used:
# MT4 cell = assay: Cellular toxicity in uninfected MT4 cells; format: cell-based; conditions: Homo sapiens
# Protocol: Toxicity of these compounds was evaluated by their ability to cause morphological changes in cells at different concentrations.
# ^a Inhibitory concentrations (IC50) represent the average of
# triplicate determinations;
# ^b Concentration of the compound required to reduce the number of
# viable uninfected cells by 50%; and […]
# HIV-1(III B) = assay: Inhibition of cytopathogenicity of HIV-1(IIIB) in MT4 cells, cell-protection assay; format: cell-based, human immunodeficiency virus type 1 (HIV-1)
# [1] = Determination of solubility in phosphate buffer (UV absorbance); format: physicochemical; conditions: for water solubility, in words: compared with AZT
# Protocol: Determination of Solubility. Each compound (70 mg) listed in Table 1 was agitated in a 25-mL volumetric flask with phosphate buffer (0.10M, 5.0 mL) for 20 h.
# [2] = phosphate buffer (0.10M), agitated 20 h
# [3] = uninfected MT4 cells, average of triplicate determinations, read-out: IC50 MT4 cell (concentration required to reduce the number of viable uninfected cells by 50%)
# [4] = Human immunodeficiency virus 1, cytopathogenicity in MT4 cells, average of triplicate determinations, read-out: IC50 HIV-1(III B)
SMILES,"solubility in H2 O [1, 2]",IC50 (HIV-1(III B); [4]),"water solubility, in words [1]","solubility at 20 h ([1]; 0.10 m phosphate buffer, aqueous buffer, phosphate buffer (0.10M), agitated 20 h, read-out: solubility in H2 O)","IC50 (MT4 cell; MT4, read-out: IC50 MT4 cell (concentration required to reduce the number of viable uninfected cells by 50%))","IC50 (HIV-1(III B); Human immunodeficiency virus 1, MT4, read-out: IC50 HIV-1(III B))",IC50 (MT4 cell; [3])
"Cc1cn([C@H]2C[C@H](N=[N+]=[N-])[C@@H](CO)O2)c(=O)[nH]c1=O [AZT, 3'-Azido-3'-deoxythymidine, reference compound]",,,,,57.3 µg/mL,0.02 µg/mL,
"Cc1cn([C@H]2C[C@H](F)[C@@H](CP(=O)(O)O)O2)c(=O)[nH]c1=O [Compound V, 3'-Fluoro-3',5'-dideoxythymidine-5'-phosphonic acid]",12260 µg/mL,11.8 µg/mL,higher than that of AZT,,,,98.7 µg/mL
"Cc1cn([C@H]2C[C@H](N=[N+]=[N-])[C@@H](CP(=O)(O)O)O2)c(=O)[nH]c1=O [Compound VI, 3'-Azido-3',5'-dideoxythymidine-5'-phosphonic Acid]",,7.68 µg/mL,,11100 µg/mL,,,115 µg/mL
"Cc1cn([C@H]2C[C@H](OP(=O)(O)C[C@H]3O[C@@H](n4cc(C)c(=O)[nH]c4=O)C[C@@H]3F)[C@@H](CO)O2)c(=O)[nH]c1=O [Compound VII, (2R,4S,5R)-1-[4-Fluorotetrahydro-5-[(3'-O-thymidinyl-phosphinico)methyl]-2-furyl]thymine]",3980 µg/mL,3.04 µg/mL,,,,,79 µg/mL
"Cc1cn([C@H]2CC[C@@H](CP(=O)(O)O)O2)c(=O)[nH]c1=O [III, 3',5'-Dideoxythymidine-5'-phosphonic acid]",,23.5 µg/mL,,,,,128 µg/mL
"Cc1cn([C@H]2C[C@H](C#N)[C@@H](CP(=O)(O)O)O2)c(=O)[nH]c1=O [IV, 3'-Cyano-3',5'-dideoxythymidine-5'-phosphonic acid]",,> 128 µg/mL,,,,,69.9 µg/mL
"Cc1cn([C@H]2C[C@H](N=[N+]=[N-])[C@@H](CP(=O)(O)O[C@H]3C[C@H](n4cc(C)c(=O)[nH]c4=O)O[C@@H]3CO)O2)c(=O)[nH]c1=O [VIII, (2R,4S,5R)-1-[4-Azidotetrahydro-5-[(3'-O-thymidinyl-phosphinico)methyl]-2-furyl]thymine]",3240 µg/mL,1.92 µg/mL,,,,,99.5 µg/mL

# Further lines, with some results ahead:
"solubility in H2 O [1, 2]",IC50 (HIV-1(III B); [4]),"water solubility, in words [1]","solubility at 20 h ([1]; 0.10 m phosphate buffer, aqueous buffer, phosphate buffer (0.10M), agitated 20 h, read-out: solubility in H2 O)",SMILES,"IC50 (MT4 cell; MT4, read-out: IC50 MT4 cell (concentration required to reduce the number of viable uninfected cells by 50%))","IC50 (HIV-1(III B); Human immunodeficiency virus 1, MT4, read-out: IC50 HIV-1(III B))",IC50 (MT4 cell; [3])
8790 µg/mL,0.34 µg/mL,,,"COC(=O)[C@H](C)NP(=O)(C[C@H]1O[C@@H](n2cc(C)c(=O)[nH]c2=O)C[C@@H]1F)O[C@H]1C[C@H](n2cc(C)c(=O)[nH]c2=O)O[C@@H]1CO (stereo partly drawn) [Compound IX, (2R,4S,5R)-1-[4-Fluorotetrahydro-5-[[(3'-O-thymidinyl)(methoxy-L-alaninyl)-phosphinylidene]methyl]-2-furyl]thymine]",,,180 µg/mL
9130 µg/mL,0.61 µg/mL,,,"COC(=O)[C@H](C)NP(=O)(C[C@H]1O[C@@H](n2cc(C)c(=O)[nH]c2=O)C[C@@H]1N=[N+]=[N-])O[C@H]1C[C@H](n2cc(C)c(=O)[nH]c2=O)O[C@@H]1CO (stereo partly drawn) [Compound X, (2R,4S,5R)-1-[4-Azidotetrahydro-5-[[(3'-O-thymidinyl)(methoxy-L-alaninyl)-phosphinylidene]methyl]-2-furyl]thymine]",,,200 µg/mL
8920 µg/mL,0.5 µg/mL,,,"COC(=O)[C@@H](C)NP(=O)(C[C@H]1O[C@@H](n2cc(C)c(=O)[nH]c2=O)C[C@@H]1F)O[C@H]1C[C@H](n2cc(C)c(=O)[nH]c2=O)O[C@@H]1CO (stereo partly drawn) [Compound XI, (2R,4S,5R)-1-[4-Fluorotetrahydro-5-[[(3'-O-thymidinyl)(methoxy-D-alaninyl)-phosphinylidene]methyl]-2-furyl]thymine]",,,462 µg/mL
9200 µg/mL,0.76 µg/mL,higher than that of AZT,,"COC(=O)[C@@H](C)NP(=O)(C[C@H]1O[C@@H](n2cc(C)c(=O)[nH]c2=O)C[C@@H]1N=[N+]=[N-])O[C@H]1C[C@H](n2cc(C)c(=O)[nH]c2=O)O[C@@H]1CO (stereo partly drawn) [Compound XII, (2R,4S,5R)-1-[4-Azidotetrahydro-5-[[(3'-O-thymidinyl)(methoxy-D-alaninyl)-phosphinylidene]methyl]-2-furyl]thymine]",,,458 µg/mL
